According to patent US4940716A, “2-amino-tetrahydro-isoquinolene derivatives and a process for the preparation thereof and pharmaceutical compositions containing same” (Chinoin Gyogyszer es Vegyeszeti Termekek Gyara Rt, priority 1987, dated 1990):

Assay: Salidiuretic screening test in rats (Lipschitz method modified by Kagawa and Kalm), 5 mg/kg p.o.
Type: in vivo, rats (LATI CFY strain, male)
Details: for K secretion, % of simultaneously measured control / Na secretion, % of simultaneously measured control / Water secretion, % of simultaneously measured control / secreted Na/K: single oral dose 5 mg/kg, rat; for Na/K ratio (in words) / secretion of urine amount and alkali metal ion: 5 mg/kg per os, rats; for secretion of urine amount and alkali metal ion: compared with dihydrochlorothiazide and furosemid
Experimental: Significant diuretic compounds containing an isoquinoline ring system have not been disclosed and therefore it is surprising that the compounds of the Formula (I) show a significant diuretic and saluretic activity. In a screening test carried out in rats (administered per os 5 mg/kg) the compounds according to the invention were compared with dihydrochlorothiazide and furosemid. […] Screen tests were carried out in masculine rats belonging to […] strain weighing at an average 240 g. The animals obtained standard rat nourishment. 16 hours before the experiment the animals were deprived of nourishment but the liquid uptake was not restricted. In order to show diuretic activity the procedure of Lipschitznek modified by Kagawa and Kalm was used. (Arch. Int. Pharmacodyn. 137, 241-249 (1962). The animals were placed into a metabolism cage. The urine collection was carried out in 0-6 and 0-24 hour periods. The control animals were administered 25 cm^3 /kg physiological salt solution through a gastric tube. The test substance was administered to the animals through a gastric tube at a dose of 5 mg/kg in physiological salt solution of an amount corresponding to the amount of physiological salt solution given to the control animals. After 6 hours the animals were administered the same volume of physiological saline solution as the volume excreted with 0-6 hours through a gastric tube. The amount of secreted urine between 0 to 6 and 0 to 24 hours was measured and calculated together with the concentration of sodium and potassium and the Na/K ratio of the urine secreted within a given period. Simultaneously with each test control groups treated with physiological salt solution and hypothiazide were used. Effect of a single oral dose of 5 mg/kg of the compouns on the secretion of water, sodium and potassium within 0-6 and 0-24 hours in the % of the simultaneously measured control values and on the secreted Na/K.

Row | SMILES | K secretion, % of simultaneously measured control (0-6 h) [%] | Na secretion, % of simultaneously measured control (0-6 h) [%] | Water secretion, % of simultaneously measured control (0-6 h) [%] | secreted Na/K (0-6 h, control 1.81) | K secretion, % of simultaneously measured control (0-24 h) [%] | Na secretion, % of simultaneously measured control (0-24 h) [%] | Water secretion, % of simultaneously measured control (0-24 h) [%] | secreted Na/K (0-24 h, control 2.45) | Na/K ratio (in words) | secretion of urine amount and alkali metal ion
1 | NS(=O)(=O)c1cc(C(=O)NN2CCc3ccccc3C2)ccc1Cl [Example 1, 2-[(3'-sulfamoyl-4'-chloro)-benzoyl]-amino-1,2,3,4-tetrahydro-isoquinoline] | 145 | 260 | 216 | 9.09 | 82 | 152 | 148 | 5.94 | favorable | particularly advantageous
2 | CC1c2ccccc2CCN1NC(=O)c1ccc(Cl)c(S(N)(=O)=O)c1 (stereo not drawn) [Example 2, 1-methyl-2-[(3'-sulfamoyl-4'-chloro)-benzoyl]-amino-1,2,3,4-tetrahydro-isoquinoline] | 170 | 279 | 233 | 7.56 | 100 | 151 | 154 | 5.38 | favorable | particularly advantageous
3 | COc1cc2c(cc1OC)C(C)N(NC(=O)c1ccc(Cl)c(S(N)(=O)=O)c1)CC2 (stereo not drawn) [Example 3, 1-methyl-2-[(3'-sulfamoyl-4'-chloro-benzoyl)-amino]-6,7-dimethoxy-1,2,3,4-tetrahydro-isoquinoline-monohydrate] | 104 | 186 | 147 | 4.74 | 84 | 121 | 112 | 3.99 | – | –
4 | NS(=O)(=O)c1cc2c(cc1Cl)NCNS2(=O)=O [Hypothiazide, reference compound] | 117 | 187 | 159 | 3.90 | 109 | 123 | 119 | 3.50 | – | –
